The text below walks through data of ChEMBL document CHEMBL3045571, “Repellent activity of essential oils and some of their individual constituents against Tribolium castaneum herbst” (J Agric Food Chem, 2011).

The subject of series [1] is Tribolium castaneum. Description: Repellent activity against Tribolium castaneum (red flour beetle) assessed as induction of repellency measured 4 hr post compound exposure at 0.2 uL/cm2 using 15% compound formulation. Format: functional.
Series [2] deals with Tribolium castaneum. Nature of the series: Repellent activity against Tribolium castaneum (red flour beetle) assessed as induction of repellency measured 4 hr post compound exposure at 0.02 uL/cm2 using 15% compound formulation. Format: functional.
Series [3] deals with Tribolium castaneum. Description: Repellent activity against Tribolium castaneum (red flour beetle) assessed as induction of repellency measured 4 hr post compound exposure at 0.002 uL/cm2 using 15% compound formulation. The class given is functional.
The subject of series [4] is Tribolium castaneum. Description: Repellent activity against Tribolium castaneum (red flour beetle) assessed as induction of repellency measured 4 hr post compound exposure at 0.0002 uL/cm2 using 15% compound formulation. Format: functional.
Series [5] concerns Tribolium castaneum. Nature of the series: Repellent activity against Tribolium castaneum (red flour beetle) assessed as induction of repellency measured 4 hr post compound exposure at 0.00002 uL/cm2 using 15% compound formulation. The class given is functional.
The subject of series [6] is Tribolium castaneum. Nature of the series: Repellent activity against Tribolium castaneum (red flour beetle) assessed as induction of repellency measured 2 hr post compound exposure at 0.2 uL/cm2 using 15% compound formulation. The class given is functional.
Series [7] deals with Tribolium castaneum. Nature of the series: Repellent activity against Tribolium castaneum (red flour beetle) assessed as induction of repellency measured 2 hr post compound exposure at 0.02 uL/cm2 using 15% compound formulation. The class given is functional.
Series [8] has as its system Tribolium castaneum. Nature of the series: Repellent activity against Tribolium castaneum (red flour beetle) assessed as induction of repellency measured 2 hr post compound exposure at 0.002 uL/cm2 using 15% compound formulation. Format: functional.
Series [9] concerns Tribolium castaneum. Description: Repellent activity against Tribolium castaneum (red flour beetle) assessed as induction of repellency measured 2 hr post compound exposure at 0.0002 uL/cm2 using 15% compound formulation. Format: functional.
The test system of series [10] is Tribolium castaneum. Nature of the series: Repellent activity against Tribolium castaneum (red flour beetle) assessed as induction of repellency measured 2 hr post compound exposure at 0.00002 uL/cm2 using 15% compound formulation. The class given is functional.
Series [11] in a line: Lipophilicity, logP of the compound. Particulars: octanol/water. Format: physicochemical.

In the case of `CCCCN(CCC(=O)OCC)C(C)=O`, the Repellency was 75% in the series with Tribolium castaneum [1]; 50% in the series with Tribolium castaneum [2]; 40% with Tribolium castaneum [3]; 4% in the series with Tribolium castaneum [4]; -6% in the series with Tribolium castaneum [5]; 78% with Tribolium castaneum [6]. For the same compound, the Repellency in the series with Tribolium castaneum [7] turned out to be 60%; in the series on Tribolium castaneum [8], 54%; in the series with Tribolium castaneum [9], 16%; in the series with Tribolium castaneum [10], 2%.
By logP is commonly meant the decadic logarithm of the partition coefficient of the neutral form, usually between octanol and water. Lower therefore signals a more hydrophilic compound. On to `C=C(C)[C@H]1CC=C(C)C(=O)C1` [(S)(+)CARVONE], for which the logP in series [11] turned out to be 3.07. The Repellency is listed as 94% in the series with Tribolium castaneum [1]; 85% with Tribolium castaneum [2]; 30% in the series with Tribolium castaneum [3]; 21% in the series with Tribolium castaneum [4]; -10% in the series on Tribolium castaneum [5]; 96% with Tribolium castaneum [6]. Also, the Repellency in the series on Tribolium castaneum [7] is 91%; in the series on Tribolium castaneum [8], 53%; with Tribolium castaneum [9], 45%; in the series with Tribolium castaneum [10], -10%.
For `O=C(OCc1ccccc1)c1ccccc1` [BENZYL BENZOATE], the Repellency in the series on Tribolium castaneum [1] was found to be 91%; with Tribolium castaneum [2], 44%; in the series on Tribolium castaneum [3], 23%; in the series on Tribolium castaneum [4] it was 18%; in the series with Tribolium castaneum [5], 6%; in the series with Tribolium castaneum [6], 93%. Besides, the Repellency with Tribolium castaneum [7] is reported as 44%; with Tribolium castaneum [8], 16%; in the series on Tribolium castaneum [9] it was 14%; with Tribolium castaneum [10] it was 3%.
With `O=C(OCc1ccccc1)c1ccccc1O` [BENZYL SALICYLATE], the Repellency in the series with Tribolium castaneum [1] was 99%; with Tribolium castaneum [2], 78%; with Tribolium castaneum [3] it was 46%; in the series on Tribolium castaneum [4] it was 25%; with Tribolium castaneum [5] it was -34%; in the series with Tribolium castaneum [6] it was 94%. Also, the Repellency in the series with Tribolium castaneum [7] is listed as 74%; with Tribolium castaneum [8] it was 65%; in the series with Tribolium castaneum [9], 29%; in the series with Tribolium castaneum [10], -29%.
With `Cc1ccc(C(C)C)cc1O` [CARVACROL], the Repellency in the series on Tribolium castaneum [1] is given as 90%; in the series on Tribolium castaneum [2], 48%; in the series with Tribolium castaneum [3] it was -6%; with Tribolium castaneum [4] it was 8%; with Tribolium castaneum [5], 5%; in the series with Tribolium castaneum [6], 86%. For the same compound, the Repellency in the series with Tribolium castaneum [7] is listed as 46%; in the series on Tribolium castaneum [8] it was -3%; with Tribolium castaneum [9] it was 9%; in the series with Tribolium castaneum [10] it was 8%.
Consider `CC(C)=CCC/C(C)=C/C=O` [CITRAL], for which the Repellency with Tribolium castaneum [1] is 98%; in the series on Tribolium castaneum [2], 79%; in the series on Tribolium castaneum [3], 55%; in the series on Tribolium castaneum [4], 51%; in the series with Tribolium castaneum [5], 21%; with Tribolium castaneum [6], 98%. The Repellency with Tribolium castaneum [7] worked out at 89%; in the series with Tribolium castaneum [8], 66%; with Tribolium castaneum [9] it was 64%; in the series on Tribolium castaneum [10], 18%.
`CC(C)=CCCC(C)CCO` (configuration not stated) [CITRONELLOL]: the Repellency in the series with Tribolium castaneum [1] is 96%; in the series on Tribolium castaneum [2], 85%; with Tribolium castaneum [3] it was 60%; with Tribolium castaneum [4], 43%; with Tribolium castaneum [5] it was 40%; with Tribolium castaneum [6], 96%. The Repellency was 74% in the series with Tribolium castaneum [7], 59% in the series with Tribolium castaneum [8], 45% in the series on Tribolium castaneum [9] and 30% in the series on Tribolium castaneum [10].
Turning to `CC(C)=CCC/C(C)=C/CO` [GERANIOL], the Repellency is reported as 95% in the series on Tribolium castaneum [1]; 74% in the series with Tribolium castaneum [2]; 58% in the series on Tribolium castaneum [3]; 35% with Tribolium castaneum [4]; 4% in the series on Tribolium castaneum [5]; 98% with Tribolium castaneum [6]. Further, the Repellency with Tribolium castaneum [7] amounted to 75%; in the series with Tribolium castaneum [8], 64%; with Tribolium castaneum [9], 43%; in the series on Tribolium castaneum [10], 6%.
For the compound `CC(=O)OC/C=C(\C)CCC=C(C)C` [GERANYL ACETATE], the Repellency turned out to be 94% with Tribolium castaneum [1]; 63% in the series on Tribolium castaneum [2]; 24% with Tribolium castaneum [3]; 23% with Tribolium castaneum [4]; 8% with Tribolium castaneum [5]; 95% in the series on Tribolium castaneum [6]. For the same compound, the Repellency in the series with Tribolium castaneum [7] is given as 60%; with Tribolium castaneum [8], 21%; in the series with Tribolium castaneum [9], 21%; with Tribolium castaneum [10], 5%.
Take `C=C(C)[C@@H]1CC=C(C)C(=O)C1` [L-CARVONE]: the Repellency was 95% in the series with Tribolium castaneum [1]; 74% in the series on Tribolium castaneum [2]; 68% in the series with Tribolium castaneum [3]; 44% in the series with Tribolium castaneum [4]; 19% in the series on Tribolium castaneum [5]; 100% in the series with Tribolium castaneum [6]. Moreover, the Repellency in the series with Tribolium castaneum [7] is 84%; with Tribolium castaneum [8], 55%; in the series on Tribolium castaneum [9], 35%; with Tribolium castaneum [10] it was 21%.
On to `C=CC(=C)CCC=C(C)C` [MYRCENE], for which the Repellency in the series on Tribolium castaneum [1] is listed as 93%; with Tribolium castaneum [2], 71%; in the series with Tribolium castaneum [3] it was 65%; in the series with Tribolium castaneum [4], 30%; with Tribolium castaneum [5], 25%; in the series on Tribolium castaneum [6], 85%. Also, the Repellency in the series on Tribolium castaneum [7] was 61%; in the series on Tribolium castaneum [8], 56%; with Tribolium castaneum [9], 33%; with Tribolium castaneum [10] it was 28%.
Compound `CC(C)=CCC/C(C)=C\CO` [NEROL] had a logP in [11] of 3.47. Moreover, the Repellency came to 95% in the series on Tribolium castaneum [1]; 75% in the series with Tribolium castaneum [2]; 60% in the series on Tribolium castaneum [3]; 30% in the series with Tribolium castaneum [4]; 8% in the series with Tribolium castaneum [5]; 98% in the series with Tribolium castaneum [6]. Besides, the Repellency in the series on Tribolium castaneum [7] is given as 84%; with Tribolium castaneum [8], 64%; with Tribolium castaneum [9], 39%; with Tribolium castaneum [10], 8%.
For `Cc1ccc(C(C)C)cc1` [P-CYMENE], the Repellency was 69% in the series on Tribolium castaneum [1]; 45% in the series on Tribolium castaneum [2]; 44% in the series with Tribolium castaneum [3]; -8% in the series on Tribolium castaneum [4]; -5% in the series with Tribolium castaneum [5]; 74% with Tribolium castaneum [6]. The Repellency in the series with Tribolium castaneum [7] is recorded as 61%; in the series on Tribolium castaneum [8], 43%; with Tribolium castaneum [9], -10%; with Tribolium castaneum [10], -6%.
